Source: publication PMC7468908 (Nutrients, 2020)

Biological target: T1, CYP2C19 (Homo sapiens, UniProt P33261)
T1 construct: purchased Sigma-Aldrich
Experiment: CYP2C19-catalyzed S-mephenytoin hydroxylation (CypExpress kit, HPLC)
Format: biochemical
Conditions: not given
Experimental: (§1) Inhibition of CYP2C19 [47], 3A4 [48], and 2D6 [49] by Q and its conjugates was tested based on our previously reported methods, without modifications.
(§2) S-mephenytoin and 4-hydroxymephenytoin (CYP2C19 assay), testosterone and 6β-hydroxytestosterone (CYP3A4 assay), as well as dextromethorphan and dextrorphan (CYP2D6 assay) were quantified using the previously described methods, with minor modifications.
In CYP2C19 assay, the mobile phase contained acetonitrile, methanol (VWR), and sodium phosphate buffer (10 mM, pH 4.55) (17:10:73 v/v%). Samples were driven through a guard column (Phenomenex Security Guard C8, 4.0 × 3.0 mm) linked to an analytical column (Phenomenex C8 100 × 4.6 mm; 2.6 µm), with a 1 mL/min flow rate, at room temperature. After the isocratic elution, S-mephenytoin and 4-hydroxymephenytoin were detected at 230 nm.

T1 sequence (P33261 whole entry): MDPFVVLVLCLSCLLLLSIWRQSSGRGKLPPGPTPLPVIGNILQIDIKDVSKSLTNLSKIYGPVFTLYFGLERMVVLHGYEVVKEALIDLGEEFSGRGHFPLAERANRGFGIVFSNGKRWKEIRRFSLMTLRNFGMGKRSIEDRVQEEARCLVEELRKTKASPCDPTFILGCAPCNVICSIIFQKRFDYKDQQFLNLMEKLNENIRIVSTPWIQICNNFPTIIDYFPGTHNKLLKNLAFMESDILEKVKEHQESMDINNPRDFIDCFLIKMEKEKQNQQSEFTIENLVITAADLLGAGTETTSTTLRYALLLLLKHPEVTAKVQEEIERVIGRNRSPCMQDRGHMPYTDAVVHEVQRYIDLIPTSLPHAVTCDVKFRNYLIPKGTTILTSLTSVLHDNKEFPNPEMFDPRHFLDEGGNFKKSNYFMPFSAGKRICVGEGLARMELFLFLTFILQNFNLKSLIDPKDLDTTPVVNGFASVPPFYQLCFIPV

| SMILES | IC50 |
| --- | --- |
| COc1cc(-c2oc3cc(O)cc(O)c3c(=O)c2O)ccc1O [IR, isorhamnetin] | > 30 µM |

Same assay, conditions: S-mephenytoin hydroxylation, substrate 5 µM; read-out: IC50 for CYP2C19

| SMILES | IC50 |
| --- | --- |
| COc1cc(-c2oc3cc(O)cc(O)c3c(=O)c2OC2OC(C(=O)O)C(O)C(O)C2O)ccc1O (centres unmarked) [I3G, isorhamnetin-3-glucuronide] | > 30 µM |
| O=c1c(O)c(-c2ccc(O)c(OS(=O)(=O)O)c2)oc2cc(O)cc(O)c12 [Q3′S, quercetin-3′-sulfate] | > 30 µM |
| O=C(O)C1OC(Oc2c(-c3ccc(O)c(O)c3)oc3cc(O)cc(O)c3c2=O)C(O)C(O)C1O (centres unmarked) [Q3G, quercetin-3-glucuronide] | > 30 µM |

Same assay, conditions: substrate 5 µM S-mephenytoin

| SMILES | concentration inducing statistically significant (p < 0.01) decrease in metabolite formation, CYP2C19 |
| --- | --- |
| O=c1c(O)c(-c2ccc(O)c(O)c2)oc2cc(O)cc(O)c12 [Q, quercetin] | 10 µM |
| COc1cc(-c2oc3cc(O)cc(O)c3c(=O)c2OC2OC(C(=O)O)C(O)C(O)C2O)ccc1O (centres unmarked) [I3G, isorhamnetin-3-glucuronide] | 20 µM |
| O=c1c(O)c(-c2ccc(O)c(OS(=O)(=O)O)c2)oc2cc(O)cc(O)c12 [Q3′S, quercetin-3′-sulfate] | 20 µM |
| O=C(O)C1OC(Oc2c(-c3ccc(O)c(O)c3)oc3cc(O)cc(O)c3c2=O)C(O)C(O)C1O (centres unmarked) [Q3G, quercetin-3-glucuronide] | 20 µM |
| COc1cc(-c2oc3cc(O)cc(O)c3c(=O)c2O)ccc1O [IR, isorhamnetin] | 20 µM |

Biological target: T2, MRP2 (Homo sapiens, UniProt Q92887)
T2 construct: made in house; host or cells: Sf9 insect cells (baculovirus)
Experiment: MRP2 vesicular transport of CDCF in Sf9 membrane vesicles
Format: biochemical
Conditions: not given
Experimental: (§3) Experiments were performed in insect membrane vesicles, as describe previously. Human BCRP and MRP2 were expressed in Sf9 insect cells by baculoviruses. At the third day of infection, cells were collected and membrane vesicles were obtained by mechanical disruption and differential centrifugation. To get full activity for BCRP, the cholesterol levels of the vesicles were adjusted to the level of mammalian membranes. Vesicles were stored at -80°C, total protein content of preparations was measured by the Lowry method (used as a reference of the quantity). Membrane vesicles (50 μg protein/sample) were incubated at 37 °C for 10 min (without or with 4 mM of Mg-ATP) in 50 μL volume, in the presence of transporter specific fluorescent substrates (10 μM lucifer yellow (LY) for BCRP and 5 μM 5(6)-Carboxy-2′,7′-dichlorofluorescein (CDCF) for MRP2). Quality of membrane vesicles was confirmed applying known reference inhibitors (benzbromarone and Ko143). ATP dependent uptake of fluorescent substrates was examined in the presence of flavonoids (up to 50–200 μM). Each compound was dissolved in DMSO and solvent controls were applied in all experiments. […] After incubation, samples were rapidly filtered and washed on filter plate (MSFBN6B10, Millipore, Burlington, MA, USA). Accumulated substrates in vesicles were solved back from the filter by 100 μL of 10% sodium dodecyl sulfate and centrifuged into another plate. A 100-μL volume of fluorescence stabilizer was added to the samples (DMSO for LY, and 0.1 M NaOH for CDCF). Fluorescence of samples was measured by a plate reader (Victor X3 Perkin-Elmer, Waltham, MA, USA) at appropriate wavelengths (filters were λex = 405 nm and λem = 535 nm for LY as well as λex = 492 nm and λem = 635 nm for CDCF). ABC related transport was calculated by subtracting passive uptake measured without Mg-ATP (with Mg-AMP the same background was detected) from values measured in the presence of Mg-ATP.

T2 sequence (Q92887 whole entry): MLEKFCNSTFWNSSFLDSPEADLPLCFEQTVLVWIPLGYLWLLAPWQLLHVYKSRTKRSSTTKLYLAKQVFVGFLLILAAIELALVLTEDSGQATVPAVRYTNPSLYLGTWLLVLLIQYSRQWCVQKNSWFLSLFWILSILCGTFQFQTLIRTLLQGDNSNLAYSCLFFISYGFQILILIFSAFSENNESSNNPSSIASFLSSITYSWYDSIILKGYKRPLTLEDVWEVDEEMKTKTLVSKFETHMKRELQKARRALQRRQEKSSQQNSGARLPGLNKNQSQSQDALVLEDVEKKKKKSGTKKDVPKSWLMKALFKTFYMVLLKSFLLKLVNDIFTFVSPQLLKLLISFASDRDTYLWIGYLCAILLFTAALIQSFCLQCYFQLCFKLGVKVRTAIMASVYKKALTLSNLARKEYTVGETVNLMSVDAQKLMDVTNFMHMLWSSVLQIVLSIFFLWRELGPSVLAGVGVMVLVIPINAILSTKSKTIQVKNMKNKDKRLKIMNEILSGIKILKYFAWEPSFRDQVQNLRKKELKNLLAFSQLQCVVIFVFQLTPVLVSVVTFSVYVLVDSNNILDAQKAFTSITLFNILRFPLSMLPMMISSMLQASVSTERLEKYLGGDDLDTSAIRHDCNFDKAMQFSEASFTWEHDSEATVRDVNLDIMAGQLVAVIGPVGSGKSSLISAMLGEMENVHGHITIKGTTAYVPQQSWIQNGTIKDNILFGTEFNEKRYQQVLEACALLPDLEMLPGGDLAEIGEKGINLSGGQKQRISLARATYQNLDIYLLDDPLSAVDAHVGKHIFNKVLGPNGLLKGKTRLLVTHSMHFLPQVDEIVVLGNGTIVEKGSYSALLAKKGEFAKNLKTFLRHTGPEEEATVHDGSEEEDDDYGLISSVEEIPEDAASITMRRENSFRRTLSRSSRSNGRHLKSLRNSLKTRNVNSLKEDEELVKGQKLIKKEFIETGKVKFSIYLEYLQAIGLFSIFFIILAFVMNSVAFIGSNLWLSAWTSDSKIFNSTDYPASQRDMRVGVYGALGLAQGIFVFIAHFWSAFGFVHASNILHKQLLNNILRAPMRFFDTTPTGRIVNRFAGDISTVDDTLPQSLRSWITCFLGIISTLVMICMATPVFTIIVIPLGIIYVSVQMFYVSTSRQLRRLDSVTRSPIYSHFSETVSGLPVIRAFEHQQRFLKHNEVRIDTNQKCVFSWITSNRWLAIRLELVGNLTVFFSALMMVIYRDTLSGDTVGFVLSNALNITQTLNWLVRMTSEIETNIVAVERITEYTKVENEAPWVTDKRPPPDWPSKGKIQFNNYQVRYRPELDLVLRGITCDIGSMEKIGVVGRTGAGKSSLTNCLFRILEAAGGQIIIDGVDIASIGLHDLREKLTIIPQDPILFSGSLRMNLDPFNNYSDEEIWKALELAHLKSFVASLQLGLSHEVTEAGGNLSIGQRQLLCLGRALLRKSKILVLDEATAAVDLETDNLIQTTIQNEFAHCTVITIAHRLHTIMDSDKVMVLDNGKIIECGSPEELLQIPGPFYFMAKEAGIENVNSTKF

| SMILES | IC50 |
| --- | --- |
| COc1cc(-c2oc3cc(O)cc(O)c3c(=O)c2O)ccc1O [IR, isorhamnetin] | > 30 µM |

Same assay, conditions: vesicular uptake of 5 μM CDCF; read-out: IC50 for MRP2

| SMILES | IC50 |
| --- | --- |
| O=c1c(O)c(-c2ccc(O)c(O)c2)oc2cc(O)cc(O)c12 [Q, quercetin] | > 30 µM |
| COc1cc(-c2oc3cc(O)cc(O)c3c(=O)c2OC2OC(C(=O)O)C(O)C(O)C2O)ccc1O (centres unmarked) [I3G, isorhamnetin-3-glucuronide] | 14.9 µM |
| O=c1c(O)c(-c2ccc(O)c(OS(=O)(=O)O)c2)oc2cc(O)cc(O)c12 [Q3′S, quercetin-3′-sulfate] | 19.6 µM |
| O=C(O)C1OC(Oc2c(-c3ccc(O)c(O)c3)oc3cc(O)cc(O)c3c2=O)C(O)C(O)C1O (centres unmarked) [Q3G, quercetin-3-glucuronide] | 24.2 µM |

Biological target: T3, CYP3A4 (Homo sapiens, UniProt P08684)
T3 construct: purchased Sigma-Aldrich
Experiment: CYP3A4-catalyzed testosterone hydroxylation (CypExpress kit, HPLC)
Format: biochemical
Conditions: not given
Experimental: as §1, §2
In the CYP3A4 assay, samples were driven through a guard column (Security Guard™ Catridge C18 4.0 × 3.0 mm; Phenomenex, Torrance, CA, USA) linked to an analytical column (Kinetex C18 150 × 4.6 mm; 5 µm; Phenomenex, Torrance, CA, USA), with a 1.2 mL/min flow rate, at room temperature. The mobile phase contained methanol (VWR, Budapest, Hungary), water, and acetic acid (53:46:1 v/v%). After the isocratic elution, testosterone and 6β-hydroxytestosterone were detected at 240 nm.

T3 sequence (P08684 whole entry): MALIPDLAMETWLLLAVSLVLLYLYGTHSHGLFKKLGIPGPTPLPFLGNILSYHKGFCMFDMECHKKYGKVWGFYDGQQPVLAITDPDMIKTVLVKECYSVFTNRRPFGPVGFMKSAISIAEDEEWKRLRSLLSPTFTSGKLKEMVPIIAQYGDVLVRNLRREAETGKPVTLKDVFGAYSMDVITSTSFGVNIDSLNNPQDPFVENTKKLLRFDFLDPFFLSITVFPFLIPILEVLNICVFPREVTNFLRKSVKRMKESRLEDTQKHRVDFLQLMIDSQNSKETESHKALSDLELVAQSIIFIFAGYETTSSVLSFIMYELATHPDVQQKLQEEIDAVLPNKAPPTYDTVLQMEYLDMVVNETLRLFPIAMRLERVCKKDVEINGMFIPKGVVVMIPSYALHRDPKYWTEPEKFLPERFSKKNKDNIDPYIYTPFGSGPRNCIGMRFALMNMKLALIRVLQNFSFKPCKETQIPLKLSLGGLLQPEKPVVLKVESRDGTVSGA

| SMILES | IC50 |
| --- | --- |
| COc1cc(-c2oc3cc(O)cc(O)c3c(=O)c2O)ccc1O [IR, isorhamnetin] | > 30 µM |

Same assay, conditions: substrate 5 µM testosterone

| SMILES | concentration inducing statistically significant (p < 0.01) decrease in metabolite formation, CYP3A4 |
| --- | --- |
| O=c1c(O)c(-c2ccc(O)c(O)c2)oc2cc(O)cc(O)c12 [Q, quercetin] | 5 µM |
| COc1cc(-c2oc3cc(O)cc(O)c3c(=O)c2OC2OC(C(=O)O)C(O)C(O)C2O)ccc1O (centres unmarked) [I3G, isorhamnetin-3-glucuronide] | 10 µM |
| O=c1c(O)c(-c2ccc(O)c(OS(=O)(=O)O)c2)oc2cc(O)cc(O)c12 [Q3′S, quercetin-3′-sulfate] | 10 µM |
| O=C(O)C1OC(Oc2c(-c3ccc(O)c(O)c3)oc3cc(O)cc(O)c3c2=O)C(O)C(O)C1O (centres unmarked) [Q3G, quercetin-3-glucuronide] | 20 µM |
| COc1cc(-c2oc3cc(O)cc(O)c3c(=O)c2O)ccc1O [IR, isorhamnetin] | 10 µM |

Same assay, conditions: testosterone hydroxylation, substrate 5 µM; read-out: IC50 for CYP3A4

| SMILES | IC50 |
| --- | --- |
| COc1cc(-c2oc3cc(O)cc(O)c3c(=O)c2OC2OC(C(=O)O)C(O)C(O)C2O)ccc1O (centres unmarked) [I3G, isorhamnetin-3-glucuronide] | > 30 µM |
| O=c1c(O)c(-c2ccc(O)c(OS(=O)(=O)O)c2)oc2cc(O)cc(O)c12 [Q3′S, quercetin-3′-sulfate] | > 30 µM |
| O=C(O)C1OC(Oc2c(-c3ccc(O)c(O)c3)oc3cc(O)cc(O)c3c2=O)C(O)C(O)C1O (centres unmarked) [Q3G, quercetin-3-glucuronide] | > 30 µM |

Biological target: T4, BCRP (Homo sapiens, UniProt Q9UNQ0)
T4 construct: made in house; host or cells: Sf9 insect cells (baculovirus)
T4 sequence (Q9UNQ0 1-655): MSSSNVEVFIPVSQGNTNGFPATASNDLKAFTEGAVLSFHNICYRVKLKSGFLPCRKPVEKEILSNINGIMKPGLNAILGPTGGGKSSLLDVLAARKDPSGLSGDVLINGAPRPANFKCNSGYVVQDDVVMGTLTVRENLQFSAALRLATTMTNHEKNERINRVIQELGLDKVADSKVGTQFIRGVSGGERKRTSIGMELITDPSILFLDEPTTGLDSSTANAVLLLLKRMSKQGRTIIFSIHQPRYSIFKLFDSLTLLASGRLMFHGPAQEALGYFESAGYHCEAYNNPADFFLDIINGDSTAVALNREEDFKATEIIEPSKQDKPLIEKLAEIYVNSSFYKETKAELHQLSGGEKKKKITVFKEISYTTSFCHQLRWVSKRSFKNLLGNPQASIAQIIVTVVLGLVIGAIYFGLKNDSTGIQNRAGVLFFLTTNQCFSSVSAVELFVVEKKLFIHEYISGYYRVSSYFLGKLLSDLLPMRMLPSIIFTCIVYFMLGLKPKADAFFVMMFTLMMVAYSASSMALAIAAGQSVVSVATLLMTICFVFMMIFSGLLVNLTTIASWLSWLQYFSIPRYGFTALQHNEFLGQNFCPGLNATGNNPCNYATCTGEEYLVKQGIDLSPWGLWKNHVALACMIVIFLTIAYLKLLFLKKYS
Experiment: BCRP vesicular transport of lucifer yellow in Sf9 membrane vesicles
Format: biochemical
Conditions: 10 μM lucifer yellow
Experimental: as §3, with “Quality of membrane vesicles was confirmed applying known reference inhibitors (benzbromarone and Ko143).” left out, “CDCF).” for “CDCF). ABC related transport was calculated by subtracting passive uptake measured without Mg-ATP (with Mg-AMP the same background was detected) from values measured in the presence of Mg-ATP.”

| SMILES | concentration inducing statistically significant (p < 0.01) decrease in transport of LY by BCRP |
| --- | --- |
| O=c1c(O)c(-c2ccc(O)c(O)c2)oc2cc(O)cc(O)c12 [Q, quercetin] | 0.05 µM |
| COc1cc(-c2oc3cc(O)cc(O)c3c(=O)c2OC2OC(C(=O)O)C(O)C(O)C2O)ccc1O (centres unmarked) [I3G, isorhamnetin-3-glucuronide] | 20 µM |
| O=c1c(O)c(-c2ccc(O)c(OS(=O)(=O)O)c2)oc2cc(O)cc(O)c12 [Q3′S, quercetin-3′-sulfate] | 0.2 µM |
| O=C(O)C1OC(Oc2c(-c3ccc(O)c(O)c3)oc3cc(O)cc(O)c3c2=O)C(O)C(O)C1O (centres unmarked) [Q3G, quercetin-3-glucuronide] | 1.0 µM |
| COc1cc(-c2oc3cc(O)cc(O)c3c(=O)c2O)ccc1O [IR, isorhamnetin] | 0.05 µM |

Same assay, conditions: vesicular uptake of 10 μM lucifer yellow

| SMILES | IC50 |
| --- | --- |
| O=c1c(O)c(-c2ccc(O)c(O)c2)oc2cc(O)cc(O)c12 [Q, quercetin] | 0.13 µM |
| COc1cc(-c2oc3cc(O)cc(O)c3c(=O)c2OC2OC(C(=O)O)C(O)C(O)C2O)ccc1O (centres unmarked) [I3G, isorhamnetin-3-glucuronide] | > 30 µM |
| O=c1c(O)c(-c2ccc(O)c(OS(=O)(=O)O)c2)oc2cc(O)cc(O)c12 [Q3′S, quercetin-3′-sulfate] | 3.2 µM |
| O=C(O)C1OC(Oc2c(-c3ccc(O)c(O)c3)oc3cc(O)cc(O)c3c2=O)C(O)C(O)C1O (centres unmarked) [Q3G, quercetin-3-glucuronide] | 13.5 µM |
